From PubChem BioAssay (NCI)
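Values below derive from 48-hour exposures of cells grown in 96-well plates, with endpoints linearly interpolated between the two concentrations bracketing the appropriate inhibition level. Definition used: TGI = concentration required for complete inhibition of growth.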

Assays:
Experiment in all cases: growth of human tumour cells (NCI), 48 h
LXFL 529 NSCLC = test system: LXFL 529 NSCLC
CAKI-1 renal = test system: CAKI-1 renal
ACHN renal = test system: ACHN renal
NCI-H522 lung = test system: NCI-H522 lung
U251 CNS = test system: U251 CNS
SK-MEL-28 melanoma = test system: SK-MEL-28 melanoma
OVCAR-8 ovarian = test system: OVCAR-8 ovarian
A549 NSCLC = test system: A549 NSCLC
CCRF-CEM leukemia = test system: CCRF-CEM leukemia
DMS 273 small cell lung = test system: DMS 273 small cell lung
TK-10 renal = test system: TK-10 renal
HCC-2998 colon = test system: HCC-2998 colon
HCT-15 colon = test system: HCT-15 colon
A498 renal = test system: A498 renal
786-0 renal = test system: 786-0 renal
KM20L2 colon = test system: KM20L2 colon
SK-OV-3 ovarian = test system: SK-OV-3 ovarian
K-562 leukemia = test system: K-562 leukemia
M14 melanoma = test system: M14 melanoma
SK-MEL-5 melanoma = test system: SK-MEL-5 melanoma
SR leukemia = test system: SR leukemia
HL-60(TB) leukemia = test system: HL-60(TB) leukemia
M19-MEL melanoma = test system: M19-MEL melanoma
HCT-116 colon = test system: HCT-116 colon
UACC-62 melanoma = test system: UACC-62 melanoma
HOP-18 NSCLC = test system: HOP-18 NSCLC
SF-268 CNS = test system: SF-268 CNS
MALME-3M melanoma = test system: MALME-3M melanoma
SW-620 colon = test system: SW-620 colon
SN12C renal = test system: SN12C renal
NCI-H226 lung = test system: NCI-H226 lung
NCI-H460 lung = test system: NCI-H460 lung
UO-31 renal = test system: UO-31 renal
UACC-257 melanoma = test system: UACC-257 melanoma
MOLT-4 leukemia = test system: MOLT-4 leukemia
IGROV1 ovarian = test system: IGROV1 ovarian
OVCAR-4 ovarian = test system: OVCAR-4 ovarian
COLO 205 colon = test system: COLO 205 colon
RPMI-8226 leukemia = test system: RPMI-8226 leukemia
SF-539 CNS = test system: SF-539 CNS
DLD-1 colon = test system: DLD-1 colon
HOP-62 NSCLC = test system: HOP-62 NSCLC
DMS 114 small cell lung = test system: DMS 114 small cell lung
RXF 393 renal = test system: RXF 393 renal
OVCAR-3 ovarian = test system: OVCAR-3 ovarian
SNB-75 CNS = test system: SNB-75 CNS
KM12 colon = test system: KM12 colon
SK-MEL-2 melanoma = test system: SK-MEL-2 melanoma
SNB-19 CNS = test system: SNB-19 CNS
SNB-78 CNS = test system: SNB-78 CNS
SF-295 CNS = test system: SF-295 CNS
NCI-H23 lung = test system: NCI-H23 lung
HT29 colon = test system: HT29 colon
HOP-92 NSCLC = test system: HOP-92 NSCLC
EKVX NSCLC = test system: EKVX NSCLC
OVCAR-5 ovarian = test system: OVCAR-5 ovarian

Structure (SMILES): C=CCC12CC(=O)CCC1CC(=O)C2 (configuration not stated)
- TGI (LXFL 529 NSCLC): > 100 µM
- TGI (CAKI-1 renal): > 100 µM
- TGI (ACHN renal): > 100 µM
- TGI (NCI-H522 lung): > 100 µM
- TGI (U251 CNS): > 100 µM
- TGI (SK-MEL-28 melanoma): > 100 µM
- TGI (OVCAR-8 ovarian): > 100 µM
- TGI (A549 NSCLC): > 100 µM
- TGI (CCRF-CEM leukemia): > 100 µM
- TGI (DMS 273 small cell lung): > 100 µM
- TGI (TK-10 renal): > 100 µM
- TGI (HCC-2998 colon): > 100 µM
- TGI (HCT-15 colon): > 100 µM
- TGI (A498 renal): > 100 µM
- TGI (786-0 renal): > 100 µM
- TGI (KM20L2 colon): > 100 µM
- TGI (SK-OV-3 ovarian): > 100 µM
- TGI (K-562 leukemia): > 100 µM
- TGI (M14 melanoma): > 100 µM
- TGI (SK-MEL-5 melanoma): > 100 µM
- TGI (SR leukemia): > 100 µM
- TGI (HL-60(TB) leukemia): > 100 µM
- TGI (M19-MEL melanoma): > 100 µM
- TGI (HCT-116 colon): > 100 µM
- TGI (UACC-62 melanoma): > 100 µM
- TGI (HOP-18 NSCLC): > 100 µM
- TGI (SF-268 CNS): > 100 µM
- TGI (MALME-3M melanoma): > 100 µM
- TGI (SW-620 colon): > 100 µM
- TGI (SN12C renal): > 100 µM
- TGI (NCI-H226 lung): > 100 µM
- TGI (NCI-H460 lung): > 100 µM
- TGI (UO-31 renal): > 100 µM
- TGI (UACC-257 melanoma): > 100 µM
- TGI (MOLT-4 leukemia): > 100 µM
- TGI (IGROV1 ovarian): > 100 µM
- TGI (OVCAR-4 ovarian): > 100 µM
- TGI (COLO 205 colon): > 100 µM
- TGI (RPMI-8226 leukemia): > 100 µM
- TGI (SF-539 CNS): > 100 µM
- TGI (DLD-1 colon): > 100 µM
- TGI (HOP-62 NSCLC): > 100 µM
- TGI (DMS 114 small cell lung): > 100 µM
- TGI (RXF 393 renal): > 100 µM
- TGI (OVCAR-3 ovarian): > 100 µM
- TGI (SNB-75 CNS): > 100 µM
- TGI (KM12 colon): > 100 µM
- TGI (SK-MEL-2 melanoma): > 100 µM
- TGI (SNB-19 CNS): > 100 µM
- TGI (SNB-78 CNS): > 100 µM

Structure (SMILES): Cc1noc(C)c1C1=CCCCc2ccccc21
- TGI (LXFL 529 NSCLC): > 100 µM
- TGI (ACHN renal): > 100 µM
- TGI (NCI-H522 lung): > 100 µM
- TGI (U251 CNS): > 100 µM
- TGI (SK-MEL-28 melanoma): > 100 µM
- TGI (OVCAR-8 ovarian): > 100 µM
- TGI (SF-295 CNS): > 100 µM
- TGI (A549 NSCLC): > 100 µM
- TGI (CCRF-CEM leukemia): > 100 µM
- TGI (DMS 273 small cell lung): > 100 µM
- TGI (HCC-2998 colon): > 100 µM
- TGI (NCI-H23 lung): > 100 µM
- TGI (HCT-15 colon): > 100 µM
- TGI (786-0 renal): > 100 µM
- TGI (KM20L2 colon): > 100 µM
- TGI (SK-OV-3 ovarian): > 100 µM
- TGI (K-562 leukemia): > 100 µM
- TGI (M14 melanoma): > 100 µM
- TGI (SK-MEL-5 melanoma): > 100 µM
- TGI (SR leukemia): 74.9 µM
- TGI (HL-60(TB) leukemia): 62.7 µM
- TGI (M19-MEL melanoma): > 100 µM
- TGI (HT29 colon): > 100 µM
- TGI (HCT-116 colon): > 100 µM
- TGI (UACC-62 melanoma): > 100 µM
- TGI (HOP-18 NSCLC): > 100 µM
- TGI (HOP-92 NSCLC): 85.1 µM
- TGI (SF-268 CNS): > 100 µM
- TGI (MALME-3M melanoma): > 100 µM
- TGI (SW-620 colon): > 100 µM
- TGI (SN12C renal): > 100 µM
- TGI (NCI-H460 lung): > 100 µM
- TGI (UO-31 renal): > 100 µM
- TGI (UACC-257 melanoma): > 100 µM
- TGI (MOLT-4 leukemia): > 100 µM
- TGI (IGROV1 ovarian): > 100 µM
- TGI (OVCAR-4 ovarian): > 100 µM
- TGI (EKVX NSCLC): > 100 µM
- TGI (OVCAR-5 ovarian): > 100 µM
- TGI (COLO 205 colon): > 100 µM
- TGI (RPMI-8226 leukemia): > 100 µM
- TGI (SF-539 CNS): > 100 µM
- TGI (DLD-1 colon): > 100 µM
- TGI (HOP-62 NSCLC): > 100 µM
- TGI (DMS 114 small cell lung): > 100 µM
- TGI (RXF 393 renal): > 100 µM
- TGI (OVCAR-3 ovarian): > 100 µM
- TGI (SNB-75 CNS): 88.2 µM
- TGI (KM12 colon): > 100 µM
- TGI (SK-MEL-2 melanoma): > 100 µM
- TGI (SNB-19 CNS): > 100 µM
- TGI (SNB-78 CNS): > 100 µM
